Columns and labels:
[1] = RSV dissolution in different liquid lipophilic excipients; type: physicochemical
Source text: Lipophilic excipients must have peculiar features from a physicochemical perspective (i.e., solid at room temperature, chemically inert, high capacity to incorporate drugs, and capable of protecting the latter from physicochemical degradation phenomena) and a biological point of view (i.e., biocompatible, neither carcinogenic or teratogens nor allergenic, and poorly oxidizable) to use them for generating both pharmaceutical and cosmetic formulations. Here, 1-Hexadecanol (EXA) as non-toxic, biocompatible, biodegradable long-chain fatty alcohol was chosen as a solid lipid, as its surfactant characteristic allows this excipient to behave as an emulsifier agent, avoiding the need for further surfactant addition usually required for SLMs preparation using melt dispersion method. In addition, EXA was shown a certain effectiveness in the inhibition of S. aureus growth.

[2] = Preliminary RSV solubility tests in buffer solutions; type: physicochemical; conditions: 32 °C, mean ± SE (n = 3)
Procedure: […] […] The suspension was kept in a thermostatic water bath (Heidolph MR3001K Hotplate Stirrer with Heidolph EXT3001 Temperature Probe, Heidolph Instruments, Schwabach, Germany) at 32 °C and stirred for 120 min. The samples were then centrifuged for 15 min at 15.000 rpm (mySPIN™ 12 Mini Centrifuge, Thermo Fisher Scientific, Waltham, MA, USA), to remove any precipitate. The supernatant was collected, diluted in methanol, and quantified by a UV-Vis spectrophotometer. The experiments were performed in triplicate.

[3] = set-up: method as in PMID 28659908; conditions: cited from earlier work
[4] = test system: S. aureus; conditions: LB-agar as growth medium; cited from earlier work

## Oc1ccc(/C=C/c2cc(O)cc(O)c2)cc1 [RSV, 3,4′, 5-trihydroxy-trans-stilbene]
[1]; Gelucire 62/05, RSV 5% w/w
  RSV dissolution (appearance): Opalescent
[1]; Gelucire 62/05, RSV 10% w/w
  RSV dissolution (appearance): Opalescent
[1]; Gelucire 62/05, RSV 15% w/w
  RSV dissolution (appearance): Opalescent
[1]; Glyceryl Monostearate, RSV 5% w/w
  RSV dissolution (appearance): Opalescent
[1]; Glyceryl Monostearate, RSV 10% w/w
  RSV dissolution (appearance): Opalescent
[1]; Glyceryl Monostearate, RSV 15% w/w
  RSV dissolution (appearance): Opalescent
[1]; Isostearyl Isostearate, RSV 5% w/w
  RSV dissolution (appearance): Opalescent
[1]; Isostearyl Isostearate, RSV 10% w/w
  RSV dissolution (appearance): Opalescent
[1]; Isostearyl Isostearate, RSV 15% w/w
  RSV dissolution (appearance): Opalescent
[1]; Labrafil M-1944, RSV 5% w/w
  RSV dissolution (appearance): Opalescent
[1]; Labrafil M-1944, RSV 10% w/w
  RSV dissolution (appearance): Opalescent
[1]; Labrafil M-1944, RSV 15% w/w
  RSV dissolution (appearance): Opalescent
[1]; Labrafil M-2130, RSV 5% w/w
  RSV dissolution (appearance): Opalescent
[1]; Labrafil M-2130, RSV 10% w/w
  RSV dissolution (appearance): Opalescent
[1]; Labrafil M-2130, RSV 15% w/w
  RSV dissolution (appearance): Opalescent
[1]; Labrasol, RSV 5% w/w
  RSV dissolution (appearance): Clear
[1]; Labrasol, RSV 10% w/w
  RSV dissolution (appearance): Clear
[1]; Labrasol, RSV 15% w/w
  RSV dissolution (appearance): Slightly Opalescent
[1]; Soy Lecithin, RSV 5% w/w
  RSV dissolution (appearance): Opalescent
[1]; Soy Lecithin, RSV 10% w/w
  RSV dissolution (appearance): Opalescent
[1]; Soy Lecithin, RSV 15% w/w
  RSV dissolution (appearance): Opalescent
[1]; Tefose 1500, RSV 10% w/w
  RSV dissolution (appearance): Slightly Opalescent
[1]; Tefose 1500, RSV 15% w/w
  RSV dissolution (appearance): Opalescent
[1]; liquid lipid Labrasol
  amount of RSV solubilized by Labrasol: up to 10 % w/w
[2]; PBS buffer solution with BSA 5% w/v, pH 7.4, thermodynamic from solid, PBS + BSA 5%
  solubility at 120 min: 442 ± 35 µg/mL
[2]; PBS buffer solution with DMSO 10% v/v, pH 7.4, aqueous with cosolvent or surfactant or cyclodextrin, thermodynamic from solid, PBS + DMSO 10%
  solubility at 120 min: 194 ± 10 µg/mL
[2]; PBS buffer solution with α-CD 0.5% w/v, pH 7.4, aqueous with cosolvent or surfactant or cyclodextrin, thermodynamic from solid, PBS + α-CD 0.5%
  solubility at 120 min: 153 ± 8 µg/mL
[2]; PBS buffer solution with β-CD 2% w/v, pH 7.4, aqueous with cosolvent or surfactant or cyclodextrin, thermodynamic from solid, PBS + β-CD 2%
  solubility at 120 min: 886 ± 11 µg/mL
[2]; citrate buffer solution with β-CD 2% w/v, aqueous with cosolvent or surfactant or cyclodextrin, thermodynamic from solid, Citrate buffer (pH 6.2) + β-CD 2%
  solubility at 120 min: 803 ± 3 µg/mL
[3]
  partition coefficient (LogP): 3.09
[4]
  Minimal Inhibitory Concentration (MIC): 1000 µg/mL

From publication PMC7254386, “Antibacterial PEGylated Solid Lipid Microparticles for Cosmeceutical Purpose: Formulation, Characterization, and Efficacy Evaluation” (Materials, 2020)
